Results taken from patent publication US9839618B2, “Compositions and methods relating to proliferative diseases” (The Penn State Research Foundation, priority 2010, dated 2017).

Key:
Format in all cases: in vivo, mice
[1] = system: UACC 903 human melanoma cell tumors; assay: Melanoma xenograft tumor development, UACC 903
Protocol: (§1) The efficacy of leelamine for inhibiting melanoma tumor development is evaluated on preexisting tumors formed following subcutaneous injection of cancer cells into nude mice. Tumor kinetics are measured by subcutaneous injection of 1.0×10^6 UACC 903 or 1205 Lu cells in 0.2 mL of DMEM supplemented with 10% FBS subcutaneously injected above both left and right rib cages of 3- to 4-wk-old female athymic nude-Foxn1^nu mice (Harlan Laboratories, Indianapolis, Ind.). Six days later, when a fully vascularized tumor (50-75 mm^3) has formed, mice are randomly divided into DMSO vehicle control and experimental groups (5 mice/group; 2 tumors/mouse) and treated intraperitoneally with 2.5-7.5 mg/kg body weight leelamine daily for 3-4 weeks. Body weight (grams) and dimensions of the developing tumors (mm^3) are measured at the time of drug treatment as described in Sharma, A. et al., Clin Cancer Res, 2009, 15:1674-85; and Madhunapantula, S. V. et al., Mol Cancer Ther, 2008, 7:1297-308.
In this example, leelamine (40, 60, or 80 mg/kg body weight) is administered orally to 4-6 weeks old nude mice bearing UACC903 melanoma cell tumors (50-100 mm^3). Sizes of developing tumors are measured. […] Values±S.E.M. (n=5)
Tumor kinetics are measured by subcutaneous injection of 1.0×10^6 UACC 903 or 1205 Lu cells in 0.2 mL of DMEM supplemented with 10% FBS subcutaneously injected above both left and right rib cages of 3- to 4-wk-old female athymic nude-Foxn1^nu mice (Harlan Laboratories, Indianapolis, Ind.). Six days later, when a fully vascularized tumor (50-75 mm^3) has formed, mice are randomly divided into control and experimental groups (5 mice/group; 2 tumors/mouse) and treated with 30-mg/kg body weight of empty liposome vehicle, abietic acid liposomes or Nanolipolee-007 intravenously each day for 3-4 weeks. Body weight (grams) and dimensions of the developing tumors (mm^3) are measured at the time of drug treatment.

[2] = system: 1205 Lu human melanoma cell tumors; assay: Melanoma xenograft tumor development, 1205 Lu; conditions: intraperitoneally 2.5-7.5 mg/kg daily for 3-4 weeks, compared to DMSO vehicle
Protocol: as §1
Tumor kinetics are measured by subcutaneous injection of 1.0×10^6 UACC 903 or 1205 Lu cells in 0.2 mL of DMEM supplemented with 10% FBS subcutaneously injected above both left and right rib cages of 3- to 4-wk-old female athymic nude-Foxn1^nu mice (Harlan Laboratories, Indianapolis, Ind.). […] Body weight (grams) and dimensions of the developing tumors (mm^3) are measured at the time of drug treatment.

[3] = system: UACC 903 xenograft tumors; assay: Size and time matched tumors (Ki-67, TUNEL, CD31, Western blot)
Excerpt: Rates of cell proliferation (using Ki-67), apoptosis (using terminal deoxynucleotidyl transferase-mediated dUTP nick-end labeling) and tumor angiogenesis (using CD31 staining) are quantified in time and size matched tumors treated with leelamine compared with DMSO treated control animals to identify the underlying mechanism by which leelamine inhibits melanoma tumor development using an established method described in Sharma, A. et al., Clin Cancer Res, 2009, 15:1674-85; Madhunapantula, S. V. et al., Mol Cancer Ther, 2008, 7:1297-308; Sharma, A. et al., Cancer Res, 2006, 66:8200-9; and Stahl, J. M. et al., Cancer Res, 2003, 63:2881-90. Size and time matched tumors at each time are compared to identify the first statistically quantifiable difference(s) affected by leelamine treatment in the rates of processes regulating tumor development i.e. cell proliferation, apoptosis or vascular development. […] Cell proliferation is measured using mouse anti-human Ki-67 staining from Pharmigen (San Diego, Calif.). Apoptosis rates are scored using “terminal deoxynucleotidyl transferase-mediated dUTP nick end labeling (TUNEL)” TMR Red Apoptosis kit from Roche (Mannheim, Germany). […] The number of Ki-67 and TUNEL positive cells is quantified as the percentage of total cells in tumors using the IP Lab imaging software program. For CD31, the area occupied by blood vessels is measured. […]

CC(C)c1ccc2c(c1)CCC1[C@](C)(CN)CCC[C@]21C (stereo partly drawn) [Leelamine, [(1R,4aS)-1,4a-dimethyl-7-(propan-2-yl)-1,2,3,4,4a,9,10,10a-octahydrophenanthren-1-yl]methanamine]
body weights of tumor bearing mice ([1]; UACC 903 and 1205 Lu xenograft nude mice, i.p. 2.5-7.5 mg/kg daily): no significant differences | reduction of tumor volume, UACC 903 ([1]; intraperitoneally 2.5-7.5 mg/kg daily for 3-4 weeks, compared to DMSO vehicle): 61% | reduction of tumor growth development, oral ([1]; orally 40, 60 or 80 mg/kg, compared to DMSO control): ~45% | reduction of tumor volume, 1205 Lu [2]: 57% | reduction in proliferating cells (Ki-67) ([3]; day 11, i.p. 7.5 mg/kg daily from day 6, vs DMSO): 50% | active pAkt in tumor lysates (Western blot) ([3]; days 11, 13 and 15, treated from day 6): decreased active pAkt
